Test results published in patent US5185377A, “Diphenyl compounds which inhibit arachidonic acid metabolism, and their use in pharmaceutical compositions” (Ciba-Geigy Corporation, priority 1990, dated 1993).
Where two headings read alike, the source gives them in different places.

Experiments:
[1] = biological target: T1, prostaglandin H synthase (Ovis aries, UniProt P05979); assay: Inhibition of the activity of prostaglandin H synthase from sheep seminal vesicles; format: biochemical
T1 construct: H synthase from sheep seminal vesicles is obtained by the method described in the literature; from tissue; host or cells: sheep seminal vesicles
T1 sequence (P05979 25-600): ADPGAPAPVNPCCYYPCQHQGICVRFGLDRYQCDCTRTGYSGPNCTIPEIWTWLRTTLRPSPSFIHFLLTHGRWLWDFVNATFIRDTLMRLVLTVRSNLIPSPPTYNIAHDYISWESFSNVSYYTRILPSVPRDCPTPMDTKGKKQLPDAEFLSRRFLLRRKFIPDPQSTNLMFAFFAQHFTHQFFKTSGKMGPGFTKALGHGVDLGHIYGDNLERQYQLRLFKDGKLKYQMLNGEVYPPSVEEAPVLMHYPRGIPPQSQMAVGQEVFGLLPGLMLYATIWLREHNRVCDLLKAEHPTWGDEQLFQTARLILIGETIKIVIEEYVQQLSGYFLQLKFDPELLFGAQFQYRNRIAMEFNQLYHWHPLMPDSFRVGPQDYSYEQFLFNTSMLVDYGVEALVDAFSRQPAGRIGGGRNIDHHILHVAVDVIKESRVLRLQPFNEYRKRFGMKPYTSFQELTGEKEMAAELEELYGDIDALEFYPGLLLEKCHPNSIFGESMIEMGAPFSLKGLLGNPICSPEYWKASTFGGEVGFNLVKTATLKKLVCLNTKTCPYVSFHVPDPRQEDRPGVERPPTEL
Protocol: Prostaglanding H synthase from sheep seminal vesicles is obtained by the method described in the literature by Van der Oudaraa, F. J. G.; Buytenhek, M.; Methods Enzymol. 86, 60 (1982).
The enzyme activity is determined at 25° C. by polargraphic measurement of the oxygen consumption with a Clark electrode.
The measurement batch consists of […] ml^-1 of prostaglandin H synthase in 0.1 M Tris-HCl buffer pH=8.0, 5 mM tryptophan, 1 μM haemin and 0.124 mM arachidonic acid. The substances to be tested are dissolved in methylglycol and incubated with the enzyme in the absence of arachidonic acid for 10 minutes at 25° C. The enzyme reaction is started with arachidonic acid.
The titration curve of the inhibition and from this the concentration needed for 50% inhibition are determined by varying the active ingredient concentration.

[2] = biological target: T2, 15-lipoxygenase (Oryctolagus cuniculus, UniProt P12530); assay: Inhibition of the activity of 15-lipoxygenase from rabbit reticulocytes; format: biochemical
T2 construct: The lipoxygenase from rabbit reticulocytes is obtained in an electrophoretically and immunologically pure form; from tissue; host or cells: rabbit reticulocytes
T2 sequence (P12530 1-663): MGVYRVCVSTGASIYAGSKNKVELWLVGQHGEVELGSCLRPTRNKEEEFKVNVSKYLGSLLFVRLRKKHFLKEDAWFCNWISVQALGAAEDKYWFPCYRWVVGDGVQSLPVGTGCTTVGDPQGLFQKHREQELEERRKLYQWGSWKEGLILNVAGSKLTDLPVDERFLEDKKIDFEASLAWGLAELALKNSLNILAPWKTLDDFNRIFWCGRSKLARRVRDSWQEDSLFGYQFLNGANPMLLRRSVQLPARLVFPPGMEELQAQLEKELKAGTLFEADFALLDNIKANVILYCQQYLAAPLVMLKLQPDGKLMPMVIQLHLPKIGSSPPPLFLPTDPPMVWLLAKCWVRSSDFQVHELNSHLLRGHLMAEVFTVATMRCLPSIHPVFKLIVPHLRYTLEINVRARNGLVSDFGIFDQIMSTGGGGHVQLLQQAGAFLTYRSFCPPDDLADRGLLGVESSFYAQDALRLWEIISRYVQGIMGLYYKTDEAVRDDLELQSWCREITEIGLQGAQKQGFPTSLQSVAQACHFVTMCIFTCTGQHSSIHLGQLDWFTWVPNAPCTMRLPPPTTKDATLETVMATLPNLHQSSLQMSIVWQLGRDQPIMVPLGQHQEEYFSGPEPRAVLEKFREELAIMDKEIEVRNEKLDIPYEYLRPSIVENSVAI
Protocol: The lipoxygenase from rabbit reticulocytes is obtained in an electrophoretically and immunologically pure form by the method described in the literature [S. M. Rapoport et al., Eur. J. Biochem. 96, 545 (1979]. The lipoxygenase activity is determined at 25° C. via amperometric measurement of the O2 consumption by means of a Clark electrode in the following system: 0.1 M potassium phosphate pH 7.4 containing 0.2% of sodium cholate and 0.53 mM linoleic acid. The enzyme concentration in the measurement bath is 25 nM. The substances to be tested are added as a solution in methylglycol (freshly distilled). […] The enzyme reaction is started by addition of sodium cholate and linoleic acid. The titration curve of the inhibition and from this the concentration needed for 50% inhibition are determined by varying the active ingredient concentration.

[3] = tested on: isolated lung parenchyma strips; assay: Arachidonic acid-induced contraction of isolated lung parenchyma strips; format: cell-based, guinea-pig; conditions: for inhibition at 50 µM: 5×10^-5 M
Protocol: (§1) Testing of antiasthmatic active qualities of triclosan and fenticlor in vitro is carried out on isolated tracheal spirals and lung parenchyma strips of adult guinea-pigs (250-500 g) of both sexes. The tracheal spirals are prepared by the method described by Constantine [J. W. Constantine et al., J. Pharm. Pharmacol. 17, 384 (1965)]. Particular emphasis is placed on complete removal of the surrounding connective tissue and on maintaining the integrity of the epithelium [N. A. Flavahan et al., J. Appl. Physiol. 58, 834 (1985)].
(§2) The lung parenchyma strip is prepared in accordance with the method described by Del Monte [L. Del Monte et a., Naunym-Schmiedebergs Arch. Pharmacol., 338, 417 (1988)]. The contraction of the isolated organs is determined as isotonic measurement of the path under standardised conditions [J. Slapke et al., Biomed. Biochim. Acta 42, 1309 (1983)] in a multiple organ bath.
(§3) A modified Krebs-Henseleit solution (pH=7.4) of the following composition is used for the studies (m×mol 1^-1): NaCl 134.8, KCl 5.9, Tris 10.02, CaCl2 1.82, MgCl2 1.145, glucose 1.11. Air is used for gassing. The bath temperature is 37° C. for the lung parenchyma strips and 35° C. for the tracheal spirals. Conditioning of the preparations is performed several times with 5×10^-4 M acetylcholine to obtain the standardisation value, this substance subsequently being flushed out. In all studies, the contractions are induced by addition of arachidonic acid to the organ bath in increasing concentrations and are measured cumulatively. All the measurements are made in the present of 5 μM indomethacin.

[4] = tested on: isolated tracheal spirals; assay: Arachidonic acid-induced contraction of isolated tracheal spirals; format: cell-based, guinea-pig; conditions: Cavia porcellus, average, 35° C., 5 μM indomethacin present, read-out: ED50 (concentration-related contraction)
Protocol: as §1, §2
as §3, with “Conditioning of the preparations is performed several times with 5×10^-4 M acetylcholine to obtain the standardisation value, this substance subsequently being flushed out.” left out, “All the measurements are made in the present of 5 μM indomethacin.” left out

[5] = literature statement; G. B. Kasting et al. cited for the non-steroidal drugs; cited from earlier work
[6] = tested on: ovalbumin-induced bronchoconstriction; assay: Ovalbumin-induced bronchoconstriction in the ovalbumin-sensitised guinea-pig; format: in vivo
Protocol: Guinea-pigs are sensitised i.p. with 10 μg of ovalbumin and 100 mg of aluminium hydroxide in 0.5 ml of isotonic saline solution by the method of Anderson [P. Anderson, Brit. J. Pharmacol. 77, 301 (1982)]. After 14 days, the conscious animals are given a booster by inhalation of a 0.1% strength atomised ovalbumin solution. Only animals with a positive reaction are used for comparison from the fourth day after the booster. Guinea-pigs with a body weight of 450-550 g are were anaesthetised with 1.3 g/kg of ethylurethane i.p. Thereafter, a cannula is connected to the trachea. The animals are relaxed with 0.2 mg/kg pancuronium bromide i.v. and respirated in a tank respirator (f=20/min, p.=3 pPa, I:E=1:1). The animals breath in air from the room by the tracheal cannula led to the outside. The tidal volume VT is measured pneumota- chographically. 1 mg/kg of ovalbumin in 300 μl of water is instilled intratracheally to induce the spasm [G. Becher et al., Z. Erkrankg., Arm.-org. 166, 223 (1986)].
Statistical analysis of the results is carried out with the parameter-free U-test according to Mann and Whitney, p.≤0.05.

[7] = tested on: arachidonic acid-induced bronchoconstriction; assay: Arachidonic acid-induced bronchoconstriction in the guinea-pig; format: in vivo
Protocol: A bronchospasm is induced in non-sensitised guinea-pigs in the same experimental design as in Example 2 by intratracheal instillation of 2 mg/kg of Na arachidonate solution in phosphate buffer pH=7.4 [G. Becher et al., Z. Erkrankg. Atm.-org. 171, 85 (1988)].

[8] = Cavia porcellus, 5 μM indomethacin
[9] = 100 mg/kg p.o. 2 hours before, ovalbumin 1 mg/kg intratracheally
[10] = 100 mg/kg p.o. 2 hours before, Na arachidonate 2 mg/kg intratracheally

| Compound | IC50 [1] [µM] | IC50 [2] [µM] | further results |
| --- | --- | --- | --- |
| Oc1c(Cl)cc(Cl)c(O)c1Cc1c(O)c(Cl)cc(Cl)c1O [2,2'6,6'-Tetrahydroxy-3,3',5,5'-tetrachloro-diphenylmethane] | 17 | 3.6 |  |
| Oc1c(Cl)cc(Cl)c(Cl)c1Cc1c(O)c(Cl)cc(Cl)c1Cl [2,2'-Dihydroxy-3,3',5,5',6,6'-hexachloro-diphenylmethane] | 17 | 3.5 |  |
| Oc1c(Br)cc(Br)cc1Cc1cc(Br)cc(Br)c1O [2,2'-Dihydroxy-3,3',5,5'-tetrabromo-diphenylmethane] | 45 | 2.8 |  |
| Oc1c(Cl)cc(Cl)cc1Cc1cc(Cl)cc(Cl)c1O [2,2'-Dihydroxy-3,3',5,5'-tetrachloro-diphenylmethane] |  |  | IC50 ([1]; 25° C., pH=8.0, 0.124 mM arachidonic acid, 10 minutes preincubation, read-out: PG H synthase IC50): 60 µM; IC50 ([2]; 25° C., pH 7.4, 0.53 mM linoleic acid, enzyme 25 nM, read-out: 15-LOX IC50): 9.5 µM |
| Oc1c(Cl)cc(Br)cc1Cc1cc(Br)cc(Cl)c1O [2,2'-Dihydroxy-3,3'-dichloro-5,5'-dibromo-diphenylmethane] | 28 | 3.8 |  |
| Cc1cc(Cc2ccccc2)cc(Cl)c1O [2-Chloro-6-methyl-4-benzylphenol] | 35 | 28 |  |
| Oc1c(Br)cc(Cc2cc(Br)c(O)c(Br)c2)cc1Br [4,4'-Dihydroxy-3,3',5,5'-tetrabromo-diphenylmethane] | 17 | 5 |  |
| Oc1c(Cl)cc(Cc2cc(Cl)c(O)c(Br)c2)cc1Br [4,4'-Dihydroxy-3,3'-dibromo-5,5'-dichloro-diphenylmethane] | 180 | 10.5 |  |
| Cc1cc(Cl)cc(Cc2ccccc2)c1O [4-Chloro-2-methyl-6-benzylphenol] | 30 | 2.5 |  |
| CCCCC/C=C\C/C=C\C/C=C\C/C=C\CCCC(=O)O [Arachidonic acid, arachidonic acid] |  |  | EC50 ([3]; Cavia porcellus, read-out: ED50 (concentration-related contraction)): 100 µM; EC50 [4]: 50 µM |
| NC1=NN(c2cccc(C(F)(F)F)c2)CC1 [BW 755 C] |  |  | inhibition at 50 µM [3, 8]: 50% |
| Oc1ccc(Cl)cc1Cc1ccccc1 [chlorophene, 2-Benzyl-4-chlorophenol] | 40 | 2 |  |
| O=C(O)Cc1ccccc1Nc1c(Cl)cccc1Cl [diclofenac] |  |  | skin penetration [5]: inadequate skin penetration |
| Oc1ccc(Cl)cc1Sc1cc(Cl)ccc1O [fenticlor, 2,2'-dihydroxy-5,5'-dichloro-diphenyl sulfide] | 15.5 | 1.4 | IC50 ([3]; Cavia porcellus, read-out: ID50): 5 µM; inhibition of the maximum bronchospasm [6, 9]: 60%; time to return to the starting volume (tidal volume) [6, 9]: 25 min; reduction of the allergic reaction (bronchoconstriction) ([6]; fenticlor 100 mg/kg p.o. 2 hours before, in comparison with controls, p≤0.05): reduced significantly; inhibition of the maximum bronchospasm [7, 10]: 16.5%; time to return to the starting volume (tidal volume) [7, 10]: 25 min; inhibition of the arachidonic acid-induced bronchoconstrictive reaction ([7]; fenticlor 100 mg/kg p.o. 2 hours before, U-test p≤0.05): inhibited significantly (parameter-free U-test according to Mann and Whitney, p≤0.05) from the fifth minute |
| COc1ccc2c(c1)c(CC(=O)O)c(C)n2C(=O)c1ccc(Cl)cc1 [indomethacin] |  |  | skin penetration [5]: inadequate skin penetration |
| CC(C(=O)O)c1cccc(C(=O)c2ccccc2)c1 (centres unmarked) [ketoprofen] |  |  | skin penetration [5]: inadequate skin penetration |
| CN1CCC(=C2c3ccccc3CC(=O)c3sccc32)CC1 [ketotifen] |  |  | inhibition at 1 µM ([3]; Cavia porcellus, 10^-6 M, 5 μM indomethacin): 25% |
| CC(Cc1ccc(O)c(O)c1)C(C)Cc1ccc(O)c(O)c1 (centres unmarked) [nordihydroguarjiaretic acid] |  |  | inhibition at 50 µM [3, 8]: 50% |
| Oc1cc(Cl)ccc1Oc1ccc(Cl)cc1Cl [triclosan, 2,4,4'-trichloro-2'-hydroxy-diphenyl ether] | 23 | 2.4 | inhibition of the arachidonic acid-induced contraction ([3]; 10^-6 M triclosan, arachidonic acid 10^-7 -10^3 M (so in the source), 5 μM indomethacin): complete inhibition; relaxation on isolated lung parenchyma strips ([3]; triclosan concentrations of >10^-6 M): pronounced dose-related relaxation |
